This is an account of results in patent US7083655B2, “Hair dye composition” (Kao Corporation, priority 2002, dated 2006).

The data set can be described thus: Measurement of pKa value (spectrophotometric titration). The format is physicochemical. To be noted: 2×10^−5 mol/l, titrated from pH 2 with NaOH, UV-visible spectrum; for pKa: DMF/water (1/1) solution, read-out: pKa value determined; for pKa value determined: DMF/water (1/1). As for the experimental part: pKa values of the azo dyes described below were determined by the following method; The dye was dissolved in a solution of a DMF/water (1/1) volume ratio to a final concentration of 2×10^−5 mol/l. After the resulting solution was adjusted to pH 2, using 1.0 mol/l hydrochloric acid, the solution was titrated with aqueous 1.0 mol/l sodium hydroxide solution. Recording the change of the visible ultra-violet absorption spectrum, the inflection point was determined by regression analysis.

Take `Cc1nsc(/N=N/c2cc(F)c(O)c(F)c2)c1C#N` [Dye D-43]: the pKa was found to be 3.9.
Consider `Cc1cc(/N=N/c2snc(C)c2C#N)ccc1O` [Dye D-37], for which the pKa came to 6.37.
In the case of `Oc1cc(Cl)c(/N=N/c2nc3ccc(Cl)cc3s2)cc1Cl` [Dye D-40], the pKa is 4.46.
On the same count and under the same terms, under `CC(=O)Nc1cc(/N=N/c2nncs2)c(NC(C)=O)cc1O` [Dye D-46] stands 5.15.
The same measure, in the same setting: under `Cc1nsc(/N=N/c2ccc(O)c(Cl)c2)c1C#N` [Dye D-41] stands 5.02; under `CCSc1nsc(/N=N/c2cc(Cl)c(O)cc2Cl)n1` [Dye D-38], 3.5; under `CC(C)CSc1nnc(/N=N/c2cc(Cl)c(O)c(Cl)c2Cl)s1` [Dye D-45], 2.28.
For the compound `CCSc1nsc(/N=N/c2cc(Cl)c(O)c(NC(=O)CC)c2)n1` [Dye D-30], the pKa was 3.05.
On the same count and under the same terms, in the case of `Oc1c(Cl)cc(/N=N/c2nncs2)cc1Cl` [Dye D-56] it was 3.56.
Same read-out and setting: under `CC(=O)Nc1cc(/N=N/c2nncs2)ccc1O` [Dye D-29] stands 6.04.
Turning to `Cc1cc(/N=N/c2nc(-c3cccc(NS(C)(=O)=O)c3)ns2)cc(NCOc2ccccc2NS(C)(=O)=O)c1O` [Dye D-34], the pKa value determined came to 4.39.
As for `COc1cc(/N=N/c2snc(C)c2C#N)ccc1O` [Dye D-39], the pKa amounted to 5.52.
On to `Oc1c(NCOc2ccncc2)cc(/N=N/c2nc(-c3ccccc3)no2)c2ccccc12` [Dye D-49], for which the pKa value determined was found to be 5.39.

The pKa is the pH at which an ionisable group is half protonated.
